Data taken from patent publication US7410975B2, “Small molecule toll-like receptor (TLR) antagonists” (Coley Pharmaceutical Group, Inc., priority 2003, dated 2008).

Biological target: T1, human TLR9 (hTLR9) (Homo sapiens, UniProt Q9NR96)
T1 construct: expressed in transfected cells
T1 sequence (Q9NR96 26-1032): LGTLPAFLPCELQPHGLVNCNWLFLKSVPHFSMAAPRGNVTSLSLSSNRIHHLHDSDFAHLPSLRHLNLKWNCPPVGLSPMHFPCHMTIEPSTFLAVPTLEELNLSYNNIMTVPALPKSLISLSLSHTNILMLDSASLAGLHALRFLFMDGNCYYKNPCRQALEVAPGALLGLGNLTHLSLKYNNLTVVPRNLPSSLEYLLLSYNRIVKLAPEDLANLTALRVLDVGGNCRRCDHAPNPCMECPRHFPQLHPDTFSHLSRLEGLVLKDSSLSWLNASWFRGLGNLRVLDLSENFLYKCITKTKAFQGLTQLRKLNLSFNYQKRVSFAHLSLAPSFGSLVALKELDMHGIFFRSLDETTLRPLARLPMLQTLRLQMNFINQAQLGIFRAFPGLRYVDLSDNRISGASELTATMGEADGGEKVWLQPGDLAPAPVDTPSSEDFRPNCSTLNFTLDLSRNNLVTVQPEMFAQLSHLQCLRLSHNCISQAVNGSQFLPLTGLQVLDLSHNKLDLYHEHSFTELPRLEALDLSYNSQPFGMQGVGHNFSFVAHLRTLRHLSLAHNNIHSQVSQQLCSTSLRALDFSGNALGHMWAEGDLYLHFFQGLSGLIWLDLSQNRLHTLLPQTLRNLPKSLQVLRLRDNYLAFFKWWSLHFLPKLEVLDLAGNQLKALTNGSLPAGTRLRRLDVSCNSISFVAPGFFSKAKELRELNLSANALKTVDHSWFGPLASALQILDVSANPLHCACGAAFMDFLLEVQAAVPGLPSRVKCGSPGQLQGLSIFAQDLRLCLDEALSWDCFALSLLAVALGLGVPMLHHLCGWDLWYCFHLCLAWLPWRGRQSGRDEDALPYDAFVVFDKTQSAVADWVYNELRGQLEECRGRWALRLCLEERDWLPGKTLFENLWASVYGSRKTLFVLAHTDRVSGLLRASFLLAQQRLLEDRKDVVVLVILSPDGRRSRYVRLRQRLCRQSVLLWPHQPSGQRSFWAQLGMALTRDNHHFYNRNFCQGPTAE
Experiment: Antagonist screen, hTLR9-NFκB-293 cells, 6× NF-κB-luciferase reporter, with EC50 of CpG ODN 2006
Type: cell-based
Settings: compound at 0.5, 5, 50 μg/ml; EC50 concentration of CpG ODN 2006; 16 h; NF-κB-luciferase
How it was run: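 Luciferase fold induction was compared with the ligand-alone baseline, and antagonism was scored by the lowest concentration giving clear down-regulation.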

Molecule | hTLR9 (inhibitory effect, antagonist score)
COCCCNC(=O)c1ccc2c(c1N)C(=O)c1ccccc1C2=O [compound 1337] | 12 (compounds for which there was clear down regulation at 5 μg/ml and 50 μg/ml)
O=C1Nc2ccccc2Oc2ccc([N+](=O)[O-])cc21 [compound 1352] | 11 (compounds for which there was clear down regulation only at 50 μg/ml)
Flunarizinehydrochloride [compound 312] | 12 (compounds for which there was clear down regulation at 5 μg/ml and 50 μg/ml)
Maprotilinehydrochloride [compound 346] | 11 (compounds for which there was clear down regulation only at 50 μg/ml)
Metixene hydrochloride [compound 491] | 12 (compounds for which there was clear down regulation at 5 μg/ml and 50 μg/ml)
Prochlorperazinedimaleate [compound 399] | 12 (compounds for which there was clear down regulation at 5 μg/ml and 50 μg/ml)
Trifluoperazinedihydrochloride [compound 313] | 11 (compounds for which there was clear down regulation only at 50 μg/ml)
